Assay results: patent publication US10316017B2, “COT modulators and methods of use thereof” (Gilead Sciences, Inc., priority 2015, dated 2019)
pEC50, pIC50: −log10 of the molar value. Read-outs that look alike come from different tables or passages of the source.

What was measured:
[1] = test system: TNFα production in LPS-stimulated human monocytes; assay: Cot Monocyte TNFα Cell Based Assay; conditions: for IC50/EC50 [nM]: EC50 (TNFα, monocytes): second value of the cell IC50/EC50, human monocytes, 50 pg/ml LPS, 4 hours; for pEC50: Homo sapiens, Monocyte, LPS-stimulated human monocytes, TNFα TR-FRET, read-out: EC50 TNF
Procedure, shortened: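 TR-FRET read-out of total secreted TNFα, normalized as % control (unstimulated = 0%, LPS-stimulated = 100%). Cells (5,000/well) were exposed to compound 1 h at 37 °C, then to 50 pg/ml LPS for a further 4 h.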

[2] = molecular target: T1, Human EGFR, cytoplasmic domain [669-1210] (Homo sapiens, UniProt P00533); assay: High Throughput EGFR Biochemical Assay (KinEASE TR-FRET)
T1 construct: purchased Cama Biosciences (so in the source)
Procedure: Example 62: High Throughput EGFR Biochemical Assay
EGFR activity was measured using KinEASE (Cisbio), a time-resolved fluorescence resonance energy transfer (TR-FRET) immunoassay. In this assay, EGFR-catalyzes the phosphorylation of a universal Tyrosine kinase peptide substrate labeled with XL665. Europium conjugated phosphor-tyrosine specific antibody binds the resulting phosphorylated peptide. Formation of phosphorylated peptide is quantified by TR-FRET with Europium as the donor and XL665 the acceptor. The assay was performed in two main steps. The first step is the kinase reaction step and the second step is the detection step with TR-FRET reagents. In brief, test compounds 1:3 serially diluted in DMSO were delivered into Corning white, low volume, non-binding 384 well plates using the Echo 550 acoustic liquid dispenser (Labcyte®). […] After 60 min of incubation at room temperature, 10 μL of Stop and Detect Solution (1:400 Europium Cryptate labeled anti-phosphorylated peptide antibody solution and 125 nM strepavidin-XL665 Tracer in a 50 mM Hepes pH 7.0 detection buffer containing sufficient EDTA) was added.

[3] = molecular target: T2, human Cot catalytic domain (30-397 amino acids) (Homo sapiens, UniProt P41279); assay: High Throughput Cot Biochemical Assay (KinEASE TR-FRET); conditions: 400 μM ATP; for IC50: first value of the cell IC50/EC50, 5 nM Cot; for pIC50: Cot KinEASE TR-FRET, read-out: IC50 HTRF
T2 construct: Purified recombinant human Cot catalytic domain (30-397 amino acids) was purchased from Cama Biosciences; purchased Cama Biosciences (so in the source)
Procedure, shortened: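 TR-FRET readout: Eu-labeled phospho-specific antibody binds XL665-tagged STK3 peptide after phosphorylation by Cot (aa 30-397, 5 nM). Conditions: 400 μM ATP, 1 μM peptide, MOPS pH 7.0 buffer with MgOAc, DTT, BSA, NP-40, glycerol; 0.1% DMSO.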

T2 sequence (P41279 30-397): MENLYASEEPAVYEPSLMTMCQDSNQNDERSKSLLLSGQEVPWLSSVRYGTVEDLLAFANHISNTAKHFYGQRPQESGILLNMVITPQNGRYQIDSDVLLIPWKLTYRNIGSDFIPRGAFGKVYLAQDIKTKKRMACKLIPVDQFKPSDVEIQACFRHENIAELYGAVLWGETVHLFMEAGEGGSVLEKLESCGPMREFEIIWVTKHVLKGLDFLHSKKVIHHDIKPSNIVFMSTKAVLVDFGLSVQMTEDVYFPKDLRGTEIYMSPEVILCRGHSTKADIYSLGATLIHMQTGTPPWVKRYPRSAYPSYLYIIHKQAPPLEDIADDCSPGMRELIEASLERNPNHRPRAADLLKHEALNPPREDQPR
T1 sequence (P00533 669-1210): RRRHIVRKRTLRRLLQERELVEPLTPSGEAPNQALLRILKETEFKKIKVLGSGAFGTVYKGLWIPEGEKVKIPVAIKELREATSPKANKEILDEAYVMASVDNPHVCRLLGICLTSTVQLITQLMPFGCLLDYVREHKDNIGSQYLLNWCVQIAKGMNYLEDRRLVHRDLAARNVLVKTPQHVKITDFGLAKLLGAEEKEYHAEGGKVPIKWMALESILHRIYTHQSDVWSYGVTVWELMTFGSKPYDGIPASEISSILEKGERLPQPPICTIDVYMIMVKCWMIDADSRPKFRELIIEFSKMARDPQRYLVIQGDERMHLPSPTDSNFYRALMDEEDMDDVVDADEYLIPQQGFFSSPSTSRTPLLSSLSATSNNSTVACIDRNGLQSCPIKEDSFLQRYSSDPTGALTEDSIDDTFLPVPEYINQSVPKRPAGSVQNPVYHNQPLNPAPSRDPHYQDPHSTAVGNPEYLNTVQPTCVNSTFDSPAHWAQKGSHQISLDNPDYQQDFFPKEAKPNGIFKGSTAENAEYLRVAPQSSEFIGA

Structure (SMILES)	pEC50 [1]	pIC50 [3]	IC50/EC50 [nM]: EC50 (TNFα, monocytes) [1] [nM]	pIC50 [2]	IC50 ([3]; IC50/EC50 [nM]: IC50 (Cot)) [nM]	IC50 ([3]; read-out: IC50/EC50 [nM]: IC50 (Cot)) [nM]
Cn1cc(CNc2cc(Cl)c3ncc(C#N)c(Nc4ccc(F)c(Cl)c4)c3c2)nn1 [Comparative Example 3, reference compound]			> 10000	< 5.00	67	
CC(Nc1cc(Cl)c2ncc(C#N)c(Nc3ccc(F)c(Cl)c3)c2c1)c1cn(C)nn1 (centres unmarked) [Comparative Example 4, reference compound]				< 5.00		> 10000
CCN1CCC(n2cc([C@@H](Nc3cc(Cl)c4ncc(C#N)c(Nc5ccc(F)c(Cl)c5)c4c3)c3ccccc3)nn2)CC1 [Example 919, (S)-8-chloro-4-((3-chloro-4-fluorophenyl)amino)-6-(((1-(1-ethylpiperidin-4-yl)-1H-1,2,3-triazol-4-yl)(phenyl)methyl)amino) quinoline-3-carbonitrile]	7.21	8.70	62	5.64		
Cn1cc(C(Nc2cc(Cl)c3ncc(C#N)c(Nc4ccc(F)c(Cl)c4)c3c2)c2ccccc2)nn1 (centres unmarked) [Example 920, 8-chloro-4-((3-chloro-4-fluorophenyl)amino)-6-(((1-methyl-1H-1,2,3-triazol-4-yl)(phenyl)methyl)amino) quinoline-3-carbonitrile]	6.67	8.00	215	< 5.00		
COc1c([C@@H](Nc2cc(Cl)c3ncc(C#N)c(NCC(C)(C)C)c3c2)c2ccccc2Cl)nnn1C1(C)CC1 [Example 1170, (S)-8-chloro-6-(((2-chlorophenyl)(5-methoxy-1-(1-methylcyclopropyl)-1H-1,2,3-triazol-4-yl)methyl)amino)-4-(neopentylamino)quinoline-3-carbonitrile]	≤ 6.00	6.66				

Now from value to compound, other results behind:

pEC50 [1]	pIC50 [3]	Structure (SMILES)	IC50/EC50 [nM]: EC50 (TNFα, monocytes) [1] [nM]	pIC50 [2]	IC50 ([3]; IC50/EC50 [nM]: IC50 (Cot)) [nM]	IC50 ([3]; read-out: IC50/EC50 [nM]: IC50 (Cot)) [nM]
7.33	8.30	Cc1c(-c2cn[nH]c2)cccc1[C@H](Nc1cc(Cl)c2ncc(C#N)c(NCC(C)(C)C)c2c1)c1cn(C2(C(F)F)CC2)nn1 [Example 1166, (S)-8-chloro-6-(((1-(1-(difluoromethyl)cyclopropyl)-1H-1,2,3-triazol-4-yl) (2-methyl-3-(1H-pyrazol-4-yl)phenyl)methyl)amino)-4-(neopentylamino)quinoline-3-carbonitrile]				
7.21	8.30	Cc1c(-c2cnco2)cccc1[C@H](Nc1cc(Cl)c2ncc(C#N)c(NCC(C)(C)C)c2c1)c1cn(C2(C(F)F)CC2)nn1 [Example 1167, (S)-8-chloro-6-(((1-(1-(difluoromethyl)cyclopropyl)-1H-1,2,3-triazol-4-yl)(2-methyl-3-(oxazol-5-yl)phenyl)methyl)amino)-4-(neopentylamino)quinoline-3-carbonitrile]				
7.12	8.40	Cc1c(C#N)cccc1[C@H](Nc1cc(Cl)c2ncc(C#N)c(NCC(C)(C)C)c2c1)c1nnn(C2(C(F)F)CC2)c1F [Example 1168, (S)-8-chloro-6-(((3-cyano-2-methylphenyl)(1-(1-(difluoromethyl)cyclopropyl)-5-fluoro-1H-1,2,3-triazol-4-yl)methyl)amino)-4-(neopentylamino)quinoline-3-carbonitrile]				
≤ 6.00	6.63	CC(C)(C)CNc1c(C#N)cnc2c(Cl)cc(N[C@@H](c3ccccc3Cl)c3nnn(C4(C)CC4)c3F)cc12 [Example 1169, (S)-8-chloro-6-(((2-chlorophenyl)(5-fluoro-1-(1-methylcyclopropyl)-1H-1,2,3-triazol-4-yl)methyl)amino)-4-(neopentylamino)quinoline-3-carbonitrile]				
